Test results published in US20230099344A1, “COMPOUNDS AND METHODS FOR THE TARGETED DEGRADATION OF IRAK-4” (Arvinas Operations, Inc., priority 2021, published 2023).
Where two headings read alike, the source gives them in different places.

Key:
Type in all cases: cell-based
IL8 = test: IL-1β stimulated IL8 inhibition assay in PBMC; settings: human PBMCs, IL-1β stimulation, compound overnight, IL8 by MSD after 24 hrs; for IC50: read-out: IL1β stim IL8 inhibition IC50; for Emax: read-out: IL1β stim IL8 inhibition Ymax
Experimental: (§1) IL-1β, LPS, or R848 Stimulated IL6 Inhibition and IL-1β Stimulated IL8 Inhibition Assay
(§2) Human PBMC cells were seeded at 2.0×10^6 cells/mL, treated with compound overnight, and dosed with the EC50 concentration of each stimulant (either IL-1B. LPS, or R848) was determined for each donor. After 24 hrs, media was collected and analyzed by MSD for IL6 and/or IL8 levels.

IRAK-4 [1] = target: T1, IRAK-4 (Homo sapiens, UniProt Q9NWZ3); test: IRAK-4 ELISA, PBMC degradation; set-up: endogenous in cells; host or cells: PBMC; settings: treated overnight
T1 sequence (Q9NWZ3 1-460): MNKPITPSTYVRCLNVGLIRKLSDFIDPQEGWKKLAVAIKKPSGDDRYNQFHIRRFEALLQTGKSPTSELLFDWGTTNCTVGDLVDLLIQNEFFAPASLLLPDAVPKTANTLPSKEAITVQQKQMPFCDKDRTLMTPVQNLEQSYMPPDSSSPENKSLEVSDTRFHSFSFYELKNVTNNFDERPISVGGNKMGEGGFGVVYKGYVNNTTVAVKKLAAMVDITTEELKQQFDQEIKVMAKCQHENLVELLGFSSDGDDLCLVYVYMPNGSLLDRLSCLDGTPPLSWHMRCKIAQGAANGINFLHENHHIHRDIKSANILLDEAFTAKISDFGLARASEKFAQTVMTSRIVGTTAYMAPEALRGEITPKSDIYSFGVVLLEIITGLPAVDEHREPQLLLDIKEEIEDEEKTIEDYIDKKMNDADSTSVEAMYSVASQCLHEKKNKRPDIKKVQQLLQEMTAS
Summary of the method: (§3)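 ELISA quantification of cellular IRAK-4 after compound treatment overnight; PBMC were plated at 2×10^6/ml, OCI-Ly10 at 1×10^6/ml.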

IL6 = test: IL-1β stimulated IL6 inhibition assay in PBMC; settings: human PBMCs, IL-1β stimulation, compound overnight, IL6 by MSD after 24 hrs; for IC50: read-out: IL1β stim IL6 inhibition IC50; for Emax: read-out: IL1β stim IL6 inhibition Ymax
Experimental: as §1, §2

IRAK-4 [2] = target: T1, IRAK-4; test: IRAK-4 ELISA, OCI-Ly10 degradation; set-up: endogenous in cells; settings: treated overnight; for Dmax: OCI-Ly10, OCI-Ly10 cells
Summary of the method: as §3

Structure (SMILES) | IC50 (IL8) | DC50 (IRAK-4 [1]) | PBMC DC90 (IRAK-4 [1]) | IC50 (IL6) | DC50 (IRAK-4 [2]; OCI-Ly10 cells) | OCI-LY10 Dmax (IRAK-4 [2]; OCI-Ly10 cells) | Dmax (IRAK-4 [1]) | IC50 (IL6; Homo sapiens, PBMC, 24 h) | Dmax (IRAK-4 [2]) | Emax (IL8) | PBMC Dmax (IRAK-4 [1]) | IL1β stim IL6 inhibition Ymax (IL6) | Emax (IL6; PBMC)
O=C1CCC(N2C(=O)c3ccc(N4CCC(CN5CCC(N6Cc7cc(NC(=O)c8cnn9cccnc89)c(N8CCOCC8)cc7C6=O)CC5)CC4)cc3C2=O)C(=O)N1 (stereo not shown) [Example 32] | ≥ 100 nM | 1 to 5 nM | C (C represents a DC90 value ≥25.0 nM and <50 nM) | 10 to 50 nM | < 10 nM | D (D represents a Dmax value <70) |  |  |  | ≥ 90% | C (C represents a Dmax value ≥70 and <80) | A (A represents a Ymax value ≥90) | 
COc1cc2nn(C3CCN(CC4(F)CN(c5ccc6c(c5)C(=O)N(C5CCC(=O)NC5=O)C6=O)C4)CC3)cc2cc1NC(=O)c1cnn2cccnc12 (stereo not shown) [Example 207] | 50 to 100 nM | 1 to 5 nM | B (B represents a DC90 value ≥10.0 nM and <25.0 nM) |  | < 10 nM |  | ≥ 90% | 10 to 50 nM | ≥ 90% | < 70% |  |  | ≥ 90%
COc1cc2nn(C3CCN(CC4CCN(c5ccc6c(c5)CN(C5CCC(=O)NC5=O)C6=O)CC4)CC3)cc2cc1NC(=O)c1cnn2cccnc12 (stereo not shown) [Example 141] | 10 to 50 nM | 1 to 5 nM | B (B represents a DC90 value ≥10.0 nM and <25.0 nM) |  | < 10 nM |  | 80 to 90% | < 10 nM | 80 to 90% | 80 to 90% |  |  | ≥ 90%
O=C1CCC(N2Cc3cc(N4CC(F)(CN5CCC(n6cc7cc(NC(=O)c8cnn9cccnc89)c(OCC8CC8)cc7n6)CC5)C4)ccc3C2=O)C(=O)N1 (stereo not shown) [Example 279] | ≥ 100 nM | < 1 nM | A (A represents a DC90 value <10.0 nM) |  | < 10 nM |  | ≥ 90% | 10 to 50 nM | 70 to 80% | 80 to 90% |  |  | ≥ 90%
O=C1CCC(NC(=O)c2ccc(N3CC(CN4CCC(n5cc6cc(NC(=O)c7cnn8cccnc78)c(OCC7CC7)cc6n5)CC4)C3)cc2F)C(=O)N1 (stereo not shown) [Example 287] | ≥ 100 nM | 1 to 5 nM | B (B represents a DC90 value ≥10.0 nM and <25.0 nM) |  | < 10 nM |  | ≥ 90% | 50 to 100 nM | ≥ 90% | < 70% |  |  | ≥ 90%
O=C1CCC(N2C(=O)c3ccc(N4CCC(CN5CCC(N6Cc7cc(NC(=O)c8cnn9cccnc89)c(OCC8CC8)cc7C6=O)CC5)CC4)cc3C2=O)C(=O)N1 (stereo not shown) [Example 30] | ≥ 100 nM | < 1 nM | A (A represents a DC90 value <10.0 nM) |  | < 10 nM |  | 80 to 90% | 10 to 50 nM | ≥ 90% |  |  |  | ≥ 90%
O=C1CCC(N2C(=O)c3ccc(N4CCC(CN5CCC(N6Cc7cc(NC(=O)c8cnn9cccnc89)c(N8CCC(N9CCC9)CC8)cc7C6=O)CC5)CC4)cc3C2=O)C(=O)N1 (stereo not shown) [Example 38] | ≥ 100 nM | 1 to 5 nM | A (A represents a DC90 value <10.0 nM) |  | < 10 nM |  | ≥ 90% | < 10 nM | ≥ 90% | ≥ 90% |  |  | ≥ 90%
CC(C)Oc1cc2c(cc1NC(=O)c1cnn3cccnc13)CN(C1CCN(C3CN(c4ccc5c(c4)C(=O)N(C4CCC(=O)NC4=O)C5=O)C3)CC1)C2=O (stereo not shown) [Example 59] | 50 to 100 nM | 1 to 5 nM | B (B represents a DC90 value ≥10.0 nM and <25.0 nM) |  | < 10 nM |  | ≥ 90% | 10 to 50 nM | ≥ 90% | 70 to 80% |  |  | ≥ 90%
CC(C)Oc1cc2c(cc1NC(=O)c1cnn3cccnc13)CN(C1CCN(CC3CN(c4ccc5c(c4)C(=O)N(C4CCC(=O)NC4=O)C5=O)C3)CC1)C2=O (stereo not shown) [Example 5] | 50 to 100 nM | 1 to 5 nM | 5 nM |  | < 10 nM |  | 80 to 90% | 10 to 50 nM | ≥ 90% | 80 to 90% |  |  | 80 to 90%
O=C1CCC(N2Cc3cc(N4CC(CN5CCC(N6Cc7cc(NC(=O)c8cnn9cccnc89)c(OCC8CC8)cc7C6=O)CC5)C4)ccc3C2=O)C(=O)N1 (stereo not shown) [Example 29] | 50 to 100 nM | 1 to 5 nM | A (A represents a DC90 value <10.0 nM) |  | < 10 nM |  | 80 to 90% | 10 to 50 nM | 70 to 80% | 70 to 80% |  |  | < 70%
O=C1CCC(N2Cc3cc(OCCN4CCC(n5cc6cc(NC(=O)c7cnn8cccnc78)c(OCC7CC7)cc6n5)CC4)ccc3C2=O)C(=O)N1 (stereo not shown) [Example 122] | 50 to 100 nM | 1 to 5 nM | B (B represents a DC90 value ≥10.0 nM and <25.0 nM) |  | < 10 nM |  | < 70% | 10 to 50 nM | < 70% | 80 to 90% |  |  | ≥ 90%
O=C1CCC(N2Cc3cc(CCN4CCC(N5Cc6cc(NC(=O)c7cnn8cccnc78)c(N7CCOCC7)cc6C5=O)CC4)ccc3C2=O)C(=O)N1 (stereo not shown) [Example 36] | ≥ 100 nM | 1 to 5 nM | B (B represents a DC90 value ≥10.0 nM and <25.0 nM) |  | < 10 nM |  | < 70% | 10 to 50 nM | < 70% |  |  |  | 70 to 80%

Second part, led by results:

IC50 (IL8) | DC50 (IRAK-4 [1]) | PBMC DC90 (IRAK-4 [1]) | IC50 (IL6) | DC50 (IRAK-4 [2]; OCI-Ly10 cells) | OCI-LY10 Dmax (IRAK-4 [2]; OCI-Ly10 cells) | Dmax (IRAK-4 [1]) | IC50 (IL6; Homo sapiens, PBMC, 24 h) | Dmax (IRAK-4 [2]) | Structure (SMILES) | Emax (IL8) | PBMC Dmax (IRAK-4 [1]) | IL1β stim IL6 inhibition Ymax (IL6) | Emax (IL6; PBMC)
10 to 50 nM | 1 to 5 nM | A (A represents a DC90 value <10.0 nM) |  | < 10 nM |  | ≥ 90% | 10 to 50 nM | ≥ 90% | CC(C)Oc1cc2c(cc1NC(=O)c1cnn3cccnc13)CN([C@H]1CC[C@@H](N3CC4(CN(c5ccc6c(c5)C(=O)N(C5CCC(=O)NC5=O)C6=O)C4)C3)CC1)C2=O (stereo partly shown) [Example 69] | 80 to 90% |  |  | ≥ 90%
10 to 50 nM | < 1 nM | A (A represents a DC90 value <10.0 nM) |  | < 10 nM |  | ≥ 90% | < 10 nM | ≥ 90% | COc1cc2nn([C@H]3CC[C@H](N(C)C4CN(c5ccc6c(c5)C(=O)N(C5CCC(=O)NC5=O)C6=O)C4)CC3)cc2cc1NC(=O)c1cnn2cccnc12 (stereo partly shown) [Example 334] | < 70% |  |  | ≥ 90%
50 to 100 nM | < 1 nM | A (A represents a DC90 value <10.0 nM) |  | < 10 nM |  | ≥ 90% | < 10 nM | 70 to 80% | O=C1CCC(N2Cc3cc(N4CC(CN5CCC(n6cc7cc(NC(=O)c8cnn9cccnc89)c(C8CC8)cc7n6)CC5)C4)ccc3C2=O)C(=O)N1 (stereo not shown) [Example 136] | 70 to 80% |  |  | ≥ 90%
10 to 50 nM | < 1 nM | A (A represents a DC90 value <10.0 nM) |  | < 10 nM |  | ≥ 90% | < 10 nM | ≥ 90% | COc1cc2nn(C3CCN(CC4CN(c5cccc6c5n(C)c(=O)n6C5CCC(=O)NC5=O)C4)CC3)cc2cc1NC(=O)c1cnn2cccnc12 (stereo not shown) [Example 379] | 70 to 80% |  |  | 80 to 90%
10 to 50 nM | < 1 nM | A (A represents a DC90 value <10.0 nM) |  | < 10 nM |  | ≥ 90% | < 10 nM | 80 to 90% | O=C1CCC(N2Cc3cc(OCCOCCN4CCC(n5cc6cc(NC(=O)c7cnn8cccnc78)c(OCC7CC7)cc6n5)CC4)ccc3C2=O)C(=O)N1 (stereo not shown) [Example 119] | 80 to 90% |  |  | ≥ 90%
10 to 50 nM | 1 to 5 nM | A (A represents a DC90 value <10.0 nM) |  | < 10 nM |  | 80 to 90% | < 10 nM | ≥ 90% | Cc1cnc2c(C(=O)Nc3cc4c(cc3OC(C)C)C(=O)N(C3CCN(CCc5ccc6c(c5)CN(C5CCC(=O)NC5=O)C6=O)CC3)C4)cnn2c1 (stereo not shown) [Example 9] | 70 to 80% |  |  | ≥ 90%
10 to 50 nM | < 1 nM | A (A represents a DC90 value <10.0 nM) |  | < 10 nM |  | ≥ 90% | 10 to 50 nM | ≥ 90% | O=C1CCC(N2C(=O)c3ccc(N4CC(CN5CCC([C@H](F)Cn6cc7cc(NC(=O)c8cnn9cccnc89)c(OCC8CC8)cc7n6)CC5)C4)cc3C2=O)C(=O)N1 (stereo partly shown) [Example 173] | < 70% |  |  | ≥ 90%
